Legend:
[1] = system: Echinochloa oryzoides (Ard.) Fritsch.; assay: Preemergence weed control under flooded paddy conditions, ECHORC (Watergrass (Calif.)); assay type: in vivo; conditions: flooded paddy, rated three to four weeks after treatment; for herbicidal effect rating, ECHORC: preemergence weeds; for ECHORC herbicidal rating: preemergence; as to herbicidal effect rating, ECHORC: meaning of each grade not given here
Cyperus iria = assay: Preemergence weed control under flooded paddy conditions, CYPIR (Rice Flatsedge); assay type: in vivo; conditions: flooded paddy, rated three to four weeks after treatment; for herbicidal effect rating, CYPIR: preemergence weeds; for CYPIR herbicidal rating: preemergence; as to herbicidal effect rating, CYPIR: meaning of each grade not given here
[2] = system: Cyperus serotinus, Rottb.; assay: Preemergence weed control under flooded paddy conditions, CYPSE (Flatsedge); assay type: in vivo; conditions: preemergence weeds, rated three to four weeks after treatment; also: meaning of each grade not given here
Sagittaria pygmaea, L. = assay: Preemergence weed control under flooded paddy conditions, SAGPY (Arrowhead (Pygmaea)); assay type: in vivo; conditions: flooded paddy, rated three to four weeks after treatment; for herbicidal effect rating, SAGPY: preemergence weeds; for SAGPY herbicidal rating: preemergence; as to herbicidal effect rating, SAGPY: meaning of each grade not given here
[3] = system: Oryza sativa, (L.) Tebonnet; assay: Rice tolerance to post-transplant applications under flooded paddy conditions (Example 187), ORYSAT (Rice, Tebonnet); conditions: rated three to four weeks after treatment
[4] = system: Monochoria vaginalis, Presl.; assay: Preemergence weed control under flooded paddy conditions, MOOVA (Monochoria); assay type: in vivo; conditions: preemergence, flooded paddy, rated three to four weeks after treatment

| SMILES | herbicidal effect rating, ECHORC ([1]; Rate 0.0320 kg/ha) | herbicidal effect rating, ECHORC ([1]; Rate 0.0620 kg/ha) | herbicidal effect rating, ECHORC ([1]; Rate 0.1250 kg/ha) | herbicidal effect rating, ECHORC ([1]; Rate 0.2500 kg/ha) | herbicidal effect rating, CYPIR (Cyperus iria; Rate 0.0320 kg/ha) | herbicidal effect rating, CYPIR (Cyperus iria; Rate 0.0620 kg/ha) | herbicidal effect rating, CYPIR (Cyperus iria; Rate 0.1250 kg/ha) | herbicidal effect rating, CYPIR (Cyperus iria; Rate 0.2500 kg/ha) | herbicidal effect rating, CYPSE ([2]; Rate 0.0320 kg/ha) | herbicidal effect rating, CYPSE ([2]; Rate 0.0620 kg/ha) | herbicidal effect rating, CYPSE ([2]; Rate 0.1250 kg/ha) | herbicidal effect rating, CYPSE ([2]; Rate 0.2500 kg/ha) | herbicidal effect rating, SAGPY (Sagittaria pygmaea, L.; Rate 0.0320 kg/ha) | herbicidal effect rating, SAGPY (Sagittaria pygmaea, L.; Rate 0.0620 kg/ha) | herbicidal effect rating, SAGPY (Sagittaria pygmaea, L.; Rate 0.1250 kg/ha) | herbicidal effect rating, SAGPY (Sagittaria pygmaea, L.; Rate 0.2500 kg/ha) | herbicidal effect rating ORYSAT ([3]; Rate 0.0320 kg/ha) | herbicidal effect rating ORYSAT ([3]; Rate 0.0620 kg/ha) | herbicidal effect rating ORYSAT ([3]; Rate 0.1250 kg/ha) | herbicidal effect rating ORYSAT ([3]; Rate 0.2500 kg/ha) | further results |
| --- | --- | --- | --- | --- | --- | --- | --- | --- | --- | --- | --- | --- | --- | --- | --- | --- | --- | --- | --- | --- | --- |
| Cn1c(C(F)(F)F)cc(=O)n(-c2ccc3snc(C(=O)NS(=O)(=O)CCl)c3c2)c1=O [Example 334, 1,2-Benzisothiazole-3-carboxamide, N-[(chloromethyl)sulfonyl]-5-[3,6-dihydro-3-methyl-2,6-dioxo-4-(trifluoromethyl)-1(2H)-pyrimidinyl]-] | 0.0 | 0.0 | 0.0 | 3.0 | 3.0 | 5.0 | 6.0 | 6.0 | 0.0 | 0.0 | 2.0 | 2.0 | 0.0 | 0.0 | 4.0 | 4.0 | 0.0 | 0.0 | 3.0 | 3.0 | – |
| CC(Oc1ccccc1-c1nsc2ccc(-n3c(=O)cc(C(F)(F)F)n(C)c3=O)cc12)C(=O)NS(C)(=O)=O (stereo not drawn) [Example 335, Propionamide, 2-{o-{5-[3,6-dihydro-3-methyl-2,6-dioxo-4-(trifluoromethyl)-1(2H)-pyrimidinyl]-1,2-benzisothiazol-3-yl}phenoxy}-N-(methylsulfonyl)-] | 6.0 | 7.0 | 7.0 | 9.0 | 0.0 | 0.0 | 2.0 | 2.0 | 0.0 | 0.0 | 6.0 | 6.0 | 0.0 | 0.0 | 4.0 | 4.0 | 3.0 | 4.0 | 5.0 | 7.0 | – |
| Cn1c(C(F)(F)F)cc(=O)n(-c2cc3c(C(=O)NS(=O)(=O)Cc4ccccc4)nsc3cc2F)c1=O [Example 482, 1,2-Benzisothiazole-3-carboxamide, N-(benzylsulfonyl)-5-[3,6-dihydro-3-methyl-2,6-dioxo-4-(trifluoromethyl)-1(2H)-pyrimidinyl]-6-fluoro-] | – | – | – | – | – | – | – | – | – | – | – | – | – | – | – | – | – | – | – | – | ECHORC herbicidal rating ([1]; 0.0320 kg/ha): 4.0; ECHORC herbicidal rating ([1]; 0.0620 kg/ha): 7.0; ECHORC herbicidal rating ([1]; 0.1250 kg/ha): 9.0; ECHORC herbicidal rating ([1]; 0.2500 kg/ha): 9.0; CYPIR herbicidal rating (Cyperus iria; 0.0320 kg/ha): 0.0; CYPIR herbicidal rating (Cyperus iria; 0.0620 kg/ha): 0.0; CYPIR herbicidal rating (Cyperus iria; 0.1250 kg/ha): 0.0; CYPIR herbicidal rating (Cyperus iria; 0.2500 kg/ha): 6.0; MOOVA herbicidal rating ([4]; 0.0320 kg/ha): 4.0; MOOVA herbicidal rating ([4]; 0.0620 kg/ha): 5.0; MOOVA herbicidal rating ([4]; 0.1250 kg/ha): 6.0; MOOVA herbicidal rating ([4]; 0.2500 kg/ha): 7.0; SAGPY herbicidal rating (Sagittaria pygmaea, L.; 0.0320 kg/ha): 3.0; SAGPY herbicidal rating (Sagittaria pygmaea, L.; 0.0620 kg/ha): 4.0; SAGPY herbicidal rating (Sagittaria pygmaea, L.; 0.1250 kg/ha): 5.0; SAGPY herbicidal rating (Sagittaria pygmaea, L.; 0.2500 kg/ha): 7.0; ORYSAT herbicidal rating (rice tolerance) ([3]; 0.0320 kg/ha): 0.0; ORYSAT herbicidal rating (rice tolerance) ([3]; 0.0620 kg/ha): 2.0; ORYSAT herbicidal rating (rice tolerance) ([3]; 0.1250 kg/ha): 6.0; ORYSAT herbicidal rating (rice tolerance) ([3]; 0.2500 kg/ha): 7.0 |

— patent EP0908457B1, “3-(1,2-benzisothiazol- and isoxazol-5-Y1)-2,4(1H,3H)-pyrimidinedione or thione and 3-(1,2-benzisothiazol- and isoxazol-5-y1)-4(3H)-pyrimidinone or thione herbicidal agents” (BASF AKTIENGESELLSCHAFT, priority 1997, dated 1999)
